The subject of one data set is human hepatocytes. In words: CYP450 induction control in human hepatocytes. Particulars: 250 μM. In kind it is cell-based. The procedure:
To confirm the staining results, secreted levels of albumin and AFP via ELISA, and CYP450 activities through isoenzyme-specific probes that are either fluorescent or luminescent were measured. ELISA results verified both an increase in albumin secretion and a decrease in AFP secretion by treated iHeps (FIG. 4D bottom). CYP3A4 activity increased by 16 and 45 times upon treatment with FH1 and FPH2, respectively. […] Induction was considered as a possible explanation for these elevations in CYP450 activity. However, this was unlikely based on the following experiments. […] Since a period of at least 48 hrs separated compound treatment and the measurement of CYP450 activity, the iHeps were expected to have recovered from any general elevations in CYP450 activity.

Data set [1] deals with iHeps. In words: Cytochrome P450 activity in treated iHeps. Format: cell-based. Conditions: iHeps treated for 9 days. The source says:
iPS Cells were differentiated into iHeps, treated with selected compounds of the invention for 9 days, then assayed for CYP functions. The general CYP activity of the iHeps treated with compounds of the invention were elevated (FIG. 20A).

The nature of the next data set: Plasma stability - Human. In kind it is in vitro ADME. The procedure: (§1) Selected compounds of the invention were evaluated for physico-chemical properties, including solubility, microsomal stability, protein binding and plasma stability (Table 2).
(§2) Selected compounds of the invention were evaluated for physico-chemical properties, including solubility, microsomal stability, protein binding and plasma stability (Table 3).

Data set [2] in a line: Microsomal stability - Human. In kind it is in vitro ADME. Particulars: for Microsomal stability No NADPH: non-enzymatic microsomal mechanisms only; for Microsomal stability Average: enzymatic and non-enzymatic microsomal mechanisms. The procedure:
as §1, §2

In data set [3] the test system is human iPS-derived hepatocyte-like cells (iHeps). As to the kind of experiment: In vitro maturation of iHeps: ELISA of albumin and AFP. Conditions: iHeps treated for 9 days. Format: cell-based. The procedure: The in vitro maturation effects of selected compounds of the invention on human iPS-derived hepatocyte-like cells (iHeps) were evaluated. Human iPS cells were differentiated into iHeps and treated with selected compounds of the invention for 9 days. Maturity of treated iHeps was evaluated through ELISA quantification of mature (albumin) and immature (AFP) markers. Results are illustrated in FIG. 19.
For orientation: ELISA stands for enzyme-linked immunosorbent assay.

A short description of the next data set: Protein binding - Human. Format: in vitro ADME. On the procedure:
as §1, §2

The nature of data set [4]: Solubility in PBS with 1% DMSO. Conditions: aqueous buffer, kinetic from dmso stock. Format: physicochemical. On the procedure:
as §1, §2

For data set [5], the system named is human primary hepatocytes. As to the kind of experiment: Expansion of compound-treated human primary hepatocytes (cell counts, Ki67 staining). Format: cell-based. Conditions: for proliferation of hepatocytes: FIG. 11A. The procedure: The metabolic phenotype of the treated hepatocytes was assessed for canalicular transport. […] Gene expression profiling confirmed that there was no significant differences between FPH-treated and untreated hepatocytes (FIG. 11D).
The ability of compounds 201-212, 215, 217 and 244-258 to expand human primary hepatocytes in vitro was also tested.

Data set [6] relates to iHeps. As to the kind of experiment: Differentiation and maturation of iHeps (albumin/AFP ELISA, staining, CYP3A4 activity). In kind it is cell-based, human. On the procedure:
Undifferentiated iPS cells were cultured on Matrigel, supported by primary mouse embryonic fibroblasts. Once confluent, iPS cells were transitioned to differentiation media, with sequential addition of growth factors (Activin A, BMP-4, bFGF, HGF, and OSM) to guide differentiation, first into endoderm, then into hepatic progenitor cells and finally into iHeps. Compound treatment started on day 21 post initiation of differentiation and acted over a period of 9 days.
Consistent with the literature, untreated cultures had islands that double stain for albumin and the fetal marker AFP, with very little presence of the mature marker […].
The ability of compounds 201-212, 217 and 244-258 to affect the differentiation of iHeps was also tested.

≈ marks a conversion by molar mass, not a printed value. Like-named read-outs stand apart in the source and are kept apart here.

On to `O=c1cc(-c2ccccc2)oc2ccc3ccccc3c12` [BNF, β-naphthoflavone], for which the CYP450 activity result in the data set on human hepatocytes is recorded as “elevated”.

For the compound `C[C@H](CO)N1C[C@H](C)[C@H](CN(C)C(=O)Nc2ccc(F)cc2)Oc2ncc(C#Cc3ccc(F)cc3)cc2C1=O` [Compound 107, 3-(4-fluorophenyl)-1-(((2R,3S)-8-((4-fluorophenyl)ethynyl)-5-((R)-1-hydroxypropan-2-yl)-3-methyl-6-oxo-3,4,5,6-tetrahydro-2H-pyrido[2,3-b][1,5]oxazocin-2-yl)methyl)-1-methylurea], in the data set with iHeps [1], the “experimental range of effective concentrations, CYP2A6” value was in the range of 10 to 26.7 µM; the “experimental range of effective concentrations, CYP3A4” value was in the range of 6.7 to 20 µM; the “experimental range of effective concentrations, CYP3A7” value is 10 to 13.3 µM; the “experimental range of effective concentrations, general CYP activity (general BFC)” value was determined as 13.3 µM. In addition, in the data set “Plasma stability - Human”, the “Plasma stability Average” value is given as 87.1 % remaining. In data set [2], the “Microsomal stability Rep1” value was 52.4 % remaining, the “Microsomal stability Rep2” value stood at 59.3 % remaining, the “Microsomal stability No NADPH” value was 94.4 % remaining and the “Microsomal stability Average” value was 55.8 % remaining. For the same compound, in data set [3], the “experimental range of effective concentrations, albumin (mature marker)” value fell in the range of 5 to 20 µM. Besides, in “Protein binding - Human”, the “Protein binding Average” value is reported as 99.5 % bound, the “Protein binding Rep1” value was 99.4 % bound and the “Protein binding Rep2” value is reported as 99.5 % bound. The solubility (commonly how much of the substance goes into solution per volume) in data set [4] (read-out: Solubility Average) stood at 41 µM (≈ 22.5 µg/mL). Besides, in data set [4] (read-out: Solubility Rep1), the solubility is 33 µM (≈ 18.1 µg/mL). For the same compound, the solubility in data set [4] (read-out: Solubility Rep2) amounted to 47 µM (≈ 25.8 µg/mL). Further, the solubility in data set [4] (read-out: Solubility Rep3) came out at 41 µM (≈ 22.5 µg/mL). In data set [5], the “Ki67 staining co-localized with Hoechst and human albumin stains” value is reported as “increased”; the proliferation of hepatocytes result was “induced proliferation”.

Turning to `C[C@H]1CN([C@@H](C)CO)C(=O)CCCn2cc(nn2)CO[C@H]1CN(C)C(=O)C1CC1` [Compound 108, N-(((4R,5S,Z)-7-((S)-1-hydroxypropan-2-yl)-5-methyl-8-oxo-11H-3-oxa-7-aza-1(4,1)-triazolacycloundecaphane-4-yl)methyl)-N-methylcyclopropanecarboxamide], in the data set on iHeps [1], the “experimental range of effective concentrations, CYP2A6” value is 10 to 20 µM; the “experimental range of effective concentrations, CYP3A4” value fell in the range of 6.7 to 13.3 µM; the “experimental range of effective concentrations, CYP3A7” value fell in the range of 6.7 to 10 µM; the “experimental range of effective concentrations, general CYP activity (general BFC)” value was 6.7 to 13.3 µM. For the same compound, the “Plasma stability Average” value in the data set “Plasma stability - Human” worked out at 104.2 % remaining. In addition, in [2], the “Microsomal stability Rep1” value stood at 99.4 % remaining, the “Microsomal stability Rep2” value was 95.3 % remaining, the “Microsomal stability No NADPH” value was determined as 102.3 % remaining and the “Microsomal stability Average” value worked out at 97.4 % remaining. The “hepatocyte phenotype of treated iHeps” value in the data set with iHeps [6] was “more mature hepatocyte phenotypes”. Further, in the data set on iHeps [6] (treatment from day 21, 9 days), the “AFP secretion (ELISA)” value is on record as “decreased” and the “albumin secretion (ELISA)” value was “increased”. The “experimental range of effective concentrations, albumin (mature marker)” value in data set [3] fell in the range of 5 to 13.3 µM. In the data set “Protein binding - Human”, the “Protein binding Average” value turned out to be 12.0 % bound, the “Protein binding Rep1” value is 11.8 % bound and the “Protein binding Rep2” value is recorded as 12.1 % bound. Besides, the solubility in data set [4] (read-out: Solubility Average) was above 100 µM. In [4] (read-out: Solubility Rep1), the solubility was above 100 µM. For the same compound, the solubility in [4] (read-out: Solubility Rep2) is above 100 µM. Also, in data set [4] (read-out: Solubility Rep3), the solubility is above 100 µM. Also, in data set [5], the proliferation of hepatocytes result is “induced proliferation”.

(Values after patent US10081609B2, “Compounds for inducing proliferation and differentiation of cells, and methods of use thereof” (The Broad Institute, Inc., priority 2013, dated 2018).)
